Assay results published in paper PMC6375636, “Monotherapy with a low-dose lipopeptide HIV fusion inhibitor maintains long-term viral suppression in rhesus macaques” (PLoS Pathogens, 2019).
Peptide text beside a SMILES is read from it. * marks the point of attachment. Docosanoyl = CCCCCCCCCCCCCCCCCCCCCC(=O)*; Arachidoyl = CCCCCCCCCCCCCCCCCCCC(=O)*; Stearoyl = CCCCCCCCCCCCCCCCCC(=O)*; X1 = CCCCCCCCCCCCCCCCCCCCCCCC(=O)*; Lauroyl = CCCCCCCCCCCC(=O)*; Octanoyl = CCCCCCCC(=O)*

Assays:
[1] = biological target: HIV-1JRCSF; format: cell-based; conditions: Fig 1; replication-competent virus; mean ± SD of three assays in triplicate; read-out: Anti-HIV activity (IC50, pM) JRCSF infection
Experimental: (§1) The inhibitory activities of inhibitors against HIV-1 pseudoviruses and replication-competent isolates were measured as described previously. Briefly, HIV-1 pseudoviruses were generated via the cotransfection of HEK293T cells with an Env-expressing plasmid and a backbone plasmid that encodes Env-defective, luciferase-expressing HIV-1 genome (pSG3Δenv). Viral stocks of replication-competent HIV-1 isolates were generated by transfecting viral molecular clones into HEK293T cells. Culture supernatants were harvested at 48 h posttransfection, and 50% tissue culture infectious doses (TCID50) in TZM-bl cells were determined. Inhibitors were prepared in 3-fold dilutions, mixed with 100 TCID50 of a virus, and then incubated for 1 h at room temperature. The mixture was added to TZM-bl cells (10^4/well), and the cells were incubated for additional 48 h at 37°C. Luciferase activity was measured as described above.

[2] = biological target: T1, HIV-1HXB2 Env (Human immunodeficiency virus type 1 group M subtype B, UniProt P04578); test: HIV-1HXB2 Env-mediated cell-cell fusion (HL2/3 effector, TZM-bl target, luciferase reporter); format: cell-based
T1 construct: HL2/3 cells, which stably express high levels of Env, Gag, Tat, Rev, and Nef proteins of the integrated HIV-1 molecular clone HXB2/3gpt; host or cells: HL2/3 cells (effector), cocultured with TZM-bl target cells
Experimental: The inhibitory activities of inhibitors on HIV-1HXB2 Env-mediated cell-cell fusion were determined by a reporter gene assay based on the activation of an HIV LTR-driven luciferase cassette in TZM-bl cells (target) by HIV-1 tat from HL2/3 cells (effector). Briefly, 1 x 10^4/well of TZM-bl cells were plated in 96-well plates and incubated at 37°C overnight. Then, 3 x 10^4/well of HL2/3 cells were cocultured with target cells for 6 h at 37°C in the presence or absence of an inhibitor at graded concentrations. Luciferase activity was measured using luciferase assay reagents and a Luminescence Counter (Promega, Madison, Wisconsin, USA).

[3] = biological target: T2, gp41 NHR-derived target mimic peptide N39 (Human immunodeficiency virus type 1 group M subtype B, UniProt P04578); test: CD spectroscopy of lipopeptides in complex with target mimic peptide N39; format: binding, HIV-1; set-up: [θ]222: unit not given here; conditions: complex with N39, each peptide 10 μM in PBS; representative of 2 assays
T2 construct: the gp41 NHR-derived target mimic peptide N39
Excerpt: Spectra were corrected by subtracting a solvent blank.

[4] = lipopeptide alone, 10 μM in PBS, representative of 2 assays; for Helix content (%): [θ]222 / -33,000
[5] = tested on: HIV-1NL4-3(D36G) pseudovirus; format: cell-based; conditions: Fig 1; NL4-3(D36G) pseudovirus; mean ± SD of three assays in triplicate; read-out: Anti-HIV activity (IC50, pM) NL4-3 entry
Experimental: as §1, with “Culture supernatants were harvested at 48 h posttransfection, and 50% tissue culture infectious doses (TCID50) in TZM-bl cells were determined.” left out, “The mixture was added to TZM-bl cells (10^4/well), and the cells were incubated for additional 48 h at 37°C.” left out

T2 sequence (P04578 528-566): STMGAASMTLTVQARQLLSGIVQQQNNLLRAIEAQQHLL
T1 sequence (P04578 512-856): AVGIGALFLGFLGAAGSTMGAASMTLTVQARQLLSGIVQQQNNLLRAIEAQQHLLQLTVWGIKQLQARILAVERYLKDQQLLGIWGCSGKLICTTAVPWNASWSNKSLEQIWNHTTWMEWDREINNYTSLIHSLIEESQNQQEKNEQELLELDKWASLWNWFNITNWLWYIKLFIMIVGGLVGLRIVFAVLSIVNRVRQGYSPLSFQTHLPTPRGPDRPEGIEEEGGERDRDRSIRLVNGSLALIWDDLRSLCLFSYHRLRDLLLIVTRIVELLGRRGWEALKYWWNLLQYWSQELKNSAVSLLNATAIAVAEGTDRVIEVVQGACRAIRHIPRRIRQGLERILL

Compound	IC50 [1] [pM]	IC50 [2] [pM]	Helix content (%) [3] [%]	[θ]222 [3]	Helix content (%) [4] [%]	IC50 [5] [pM]	Tm (°C) ([4]; ellipticity at 222 nm, 20-98°C, 2°C/min)
CCCCCCCCCCCC(=O)NCCCC[C@H](NC(=O)[C@H](CCC(=O)O)NC(=O)[C@H](CC(C)C)NC(=O)[C@H](CCCCN)NC(=O)[C@H](CCCCN)NC(=O)[C@H](CC(C)C)NC(=O)[C@H](CCC(=O)O)NC(=O)[C@H](CCC(=O)O)NC(=O)[C@H](CCC(=O)O)NC(=O)[C@H](CC(N)=O)NC(=O)[C@H](CCCCN)NC(=O)[C@H](CCCCN)NC(=O)[C@H](CCC(N)=O)NC(=O)[C@H](CCC(N)=O)NC(=O)[C@H](CCC(=O)O)NC(=O)[C@H](CCC(=O)O)NC(=O)[C@H](C)NC(=O)[C@H](CCCCN)NC(=O)[C@H](CCCCN)NC(=O)[C@H](CC(C)C)NC(=O)[C@H](CC(C)C)NC(=O)[C@H](CCC(=O)O)NC(=O)[C@H](CCC(=O)O)NC(=O)[C@@H](NC(=O)[C@H](CCCCN)NC(=O)[C@H](CCC(N)=O)NC(=O)[C@H](CCC(=O)O)NC(=O)[C@H](Cc1c[nH]c2ccccc12)NC(C)=O)[C@@H](C)CC)C(N)=O [LP-81] (Ac-WEQKIEELLKKAEEQQKKNEEELKKLEK(Lauroyl)-NH2)	183 ± 45.4	353 ± 76.3	49	-16313	37	111 ± 68.1	
CCCCCCCCCCCCCCCCCCCC(=O)NCCCC[C@H](NC(=O)[C@H](CCC(=O)O)NC(=O)[C@H](CC(C)C)NC(=O)[C@H](CCCCN)NC(=O)[C@H](CCCCN)NC(=O)[C@H](CC(C)C)NC(=O)[C@H](CCC(=O)O)NC(=O)[C@H](CCC(=O)O)NC(=O)[C@H](CCC(=O)O)NC(=O)[C@H](CC(N)=O)NC(=O)[C@H](CCCCN)NC(=O)[C@H](CCCCN)NC(=O)[C@H](CCC(N)=O)NC(=O)[C@H](CCC(N)=O)NC(=O)[C@H](CCC(=O)O)NC(=O)[C@H](CCC(=O)O)NC(=O)[C@H](C)NC(=O)[C@H](CCCCN)NC(=O)[C@H](CCCCN)NC(=O)[C@H](CC(C)C)NC(=O)[C@H](CC(C)C)NC(=O)[C@H](CCC(=O)O)NC(=O)[C@H](CCC(=O)O)NC(=O)[C@@H](NC(=O)[C@H](CCCCN)NC(=O)[C@H](CCC(N)=O)NC(=O)[C@H](CCC(=O)O)NC(=O)[C@H](Cc1c[nH]c2ccccc12)NC(C)=O)[C@@H](C)CC)C(N)=O [LP-79] (Ac-WEQKIEELLKKAEEQQKKNEEELKKLEK(Arachidoyl)-NH2)	5.7 ± 0.86	38.7 ± 4.47	55	-18030	48	4.39 ± 0.67	56
CCCCCCCCCCCCCCCCCCCCCCCC(=O)NCCCC[C@H](NC(=O)[C@H](CCC(=O)O)NC(=O)[C@H](CC(C)C)NC(=O)[C@H](CCCCN)NC(=O)[C@H](CCCCN)NC(=O)[C@H](CC(C)C)NC(=O)[C@H](CCC(=O)O)NC(=O)[C@H](CCC(=O)O)NC(=O)[C@H](CCC(=O)O)NC(=O)[C@H](CC(N)=O)NC(=O)[C@H](CCCCN)NC(=O)[C@H](CCCCN)NC(=O)[C@H](CCC(N)=O)NC(=O)[C@H](CCC(N)=O)NC(=O)[C@H](CCC(=O)O)NC(=O)[C@H](CCC(=O)O)NC(=O)[C@H](C)NC(=O)[C@H](CCCCN)NC(=O)[C@H](CCCCN)NC(=O)[C@H](CC(C)C)NC(=O)[C@H](CC(C)C)NC(=O)[C@H](CCC(=O)O)NC(=O)[C@H](CCC(=O)O)NC(=O)[C@@H](NC(=O)[C@H](CCCCN)NC(=O)[C@H](CCC(N)=O)NC(=O)[C@H](CCC(=O)O)NC(=O)[C@H](Cc1c[nH]c2ccccc12)NC(C)=O)[C@@H](C)CC)C(N)=O [LP-77] (Ac-WEQKIEELLKKAEEQQKKNEEELKKLEK(X1)-NH2)	12 ± 1.34	161 ± 6.64				7.98 ± 0.97	
CCCCCCCCCCCCCCCCCC(=O)NCCCC[C@H](NC(=O)[C@H](CCC(=O)O)NC(=O)[C@H](CC(C)C)NC(=O)[C@H](CCCCN)NC(=O)[C@H](CCCCN)NC(=O)[C@H](CC(C)C)NC(=O)[C@H](CCC(=O)O)NC(=O)[C@H](CCC(=O)O)NC(=O)[C@H](CCC(=O)O)NC(=O)[C@H](CC(N)=O)NC(=O)[C@H](CCCCN)NC(=O)[C@H](CCCCN)NC(=O)[C@H](CCC(N)=O)NC(=O)[C@H](CCC(N)=O)NC(=O)[C@H](CCC(=O)O)NC(=O)[C@H](CCC(=O)O)NC(=O)[C@H](C)NC(=O)[C@H](CCCCN)NC(=O)[C@H](CCCCN)NC(=O)[C@H](CC(C)C)NC(=O)[C@H](CC(C)C)NC(=O)[C@H](CCC(=O)O)NC(=O)[C@H](CCC(=O)O)NC(=O)[C@@H](NC(=O)[C@H](CCCCN)NC(=O)[C@H](CCC(N)=O)NC(=O)[C@H](CCC(=O)O)NC(C)=O)[C@@H](C)CC)C(N)=O [LP-88] (Ac-EQKIEELLKKAEEQQKKNEEELKKLEK(Stearoyl)-NH2)	4.29 ± 0.58	14.4 ± 1.37	55	-18242	34	4.26 ± 1.3	
CCCCCCCCCCCCCCCCCC(=O)NCCCC[C@H](NC(=O)[C@H](CCCCN)NC(=O)[C@H](CC(C)C)NC(=O)[C@H](CCC(=O)O)NC(=O)[C@H](CCC(=O)O)NC(=O)[C@H](CCC(=O)O)NC(=O)[C@H](CC(N)=O)NC(=O)[C@H](CCCCN)NC(=O)[C@H](CCCCN)NC(=O)[C@H](CCC(N)=O)NC(=O)[C@H](CCC(N)=O)NC(=O)[C@H](CCC(=O)O)NC(=O)[C@H](CCC(=O)O)NC(=O)[C@H](C)NC(=O)[C@H](CCCCN)NC(=O)[C@H](CCCCN)NC(=O)[C@H](CC(C)C)NC(=O)[C@H](CC(C)C)NC(=O)[C@H](CCC(=O)O)NC(=O)[C@H](CCC(=O)O)NC(=O)[C@@H](NC(C)=O)[C@@H](C)CC)C(N)=O [LP-92] (Ac-IEELLKKAEEQQKKNEEELKK(Stearoyl)-NH2)	229 ± 28.4	189 ± 19.9	38	-12476	16	168 ± 20.6	
CCCCCCCCCCCCCCCCCCCCCC(=O)NCCCC[C@H](NC(=O)[C@H](CCC(=O)O)NC(=O)[C@H](CC(C)C)NC(=O)[C@H](CCCCN)NC(=O)[C@H](CCCCN)NC(=O)[C@H](CC(C)C)NC(=O)[C@H](CCC(=O)O)NC(=O)[C@H](CCC(=O)O)NC(=O)[C@H](CCC(=O)O)NC(=O)[C@H](CC(N)=O)NC(=O)[C@H](CCCCN)NC(=O)[C@H](CCCCN)NC(=O)[C@H](CCC(N)=O)NC(=O)[C@H](CCC(N)=O)NC(=O)[C@H](CCC(=O)O)NC(=O)[C@H](CCC(=O)O)NC(=O)[C@H](C)NC(=O)[C@H](CCCCN)NC(=O)[C@H](CCCCN)NC(=O)[C@H](CC(C)C)NC(=O)[C@H](CC(C)C)NC(=O)[C@H](CCC(=O)O)NC(=O)[C@H](CCC(=O)O)NC(=O)[C@@H](NC(=O)[C@H](CCCCN)NC(=O)[C@H](CCC(N)=O)NC(=O)[C@H](CCC(=O)O)NC(=O)[C@H](Cc1c[nH]c2ccccc12)NC(C)=O)[C@@H](C)CC)C(N)=O [LP-78] (Ac-WEQKIEELLKKAEEQQKKNEEELKKLEK(Docosanoyl)-NH2)	7.16 ± 2.01	54.4 ± 7.09				3.73 ± 0.45	
CCCCCCCC(=O)NCCCC[C@H](NC(=O)[C@H](CCC(=O)O)NC(=O)[C@H](CC(C)C)NC(=O)[C@H](CCCCN)NC(=O)[C@H](CCCCN)NC(=O)[C@H](CC(C)C)NC(=O)[C@H](CCC(=O)O)NC(=O)[C@H](CCC(=O)O)NC(=O)[C@H](CCC(=O)O)NC(=O)[C@H](CC(N)=O)NC(=O)[C@H](CCCCN)NC(=O)[C@H](CCCCN)NC(=O)[C@H](CCC(N)=O)NC(=O)[C@H](CCC(N)=O)NC(=O)[C@H](CCC(=O)O)NC(=O)[C@H](CCC(=O)O)NC(=O)[C@H](C)NC(=O)[C@H](CCCCN)NC(=O)[C@H](CCCCN)NC(=O)[C@H](CC(C)C)NC(=O)[C@H](CC(C)C)NC(=O)[C@H](CCC(=O)O)NC(=O)[C@H](CCC(=O)O)NC(=O)[C@@H](NC(=O)[C@H](CCCCN)NC(=O)[C@H](CCC(N)=O)NC(=O)[C@H](CCC(=O)O)NC(=O)[C@H](Cc1c[nH]c2ccccc12)NC(C)=O)[C@@H](C)CC)C(N)=O [LP-82] (Ac-WEQKIEELLKKAEEQQKKNEEELKKLEK(Octanoyl)-NH2)	3710 ± 1080	3210 ± 1430	39	-12910	22	1010 ± 344	
Ac-WEQKIEELLKKAEEQQKKNEEELKKLEK-NH2 [Lipopeptide P-52]	2170 ± 146	1340 ± 119				2620 ± 235	
